Reference: PMC10707992 (2023)

System: FAM-Apt (DNA, aptamer) ATCACGTGTTGTCTCTCTGTGTCTCGTG
Test: FRET strand-displacement assay (fluorescence recovery)
Settings: 20 mM Mg-acetate, 100 mM Na-acetate; Tris-acetate pH 8.5, 25 °C; 3'-RTQ1 cDNA CAGAGAGAC not displaced; tested at 1 µM

Structure (SMILES)	binding
C[C@H]1CCCC(=O)CCC/C=C/c2cc(O)cc(O)c2C(=O)O1	no
C[C@@H]1Cc2c(Cl)cc(C(=O)N[C@@H](Cc3ccccc3)C(=O)O)c(O)c2C(=O)O1	no
